{"source": "patent US9464326B2", "about": "“Total and phosphorylated IL-1 receptor-associated kinase-1 and IL-1 receptor-associated kinase-4 as a biomarker for cancer progression and chemotherapy resistance” (University of Maryland, Baltimore, priority 2012, dated 2016)", "system": "CCRF-CEM cells", "test": "Cell number and apoptosis assays", "format": "cell-based, human", "settings": "IRAK-1,-4 inhibitor 0-20 μM plus titrated drug, apoptosis by 7AAD at 48 hours, FIG. 23", "protocol": "TLR ligands were diluted 2-fold. Cell lines (25-40×10^3/well) were cultured for 54 hours, whereas fresh patient-derived T-ALL cells (200×10^3/well) were cultured for 30 hours prior to adding [^3H]-thymidine for 18 hours. After this time point, cells were harvested with a Packard Filter-Mate-96 cell harvester (Perkin Elmer, Waltham, Mass., USA) and counted on Packard Top Count-NXT (Perkin Elmer, Waltham, Mass., USA). Results were expressed as average counts per minute (cpm). In some experiments CCRF-CEM cells were pre-treated with TLR1-TLR2 ligand (Pam3CysK4; 2.5 ug/ml) for 48 hrs, washed, and then cultured in the presence of varying concentrations of FBS. Forty-eight hours later, proliferation (±SD) was determined by ^3H-thymidine incorporation. Alternatively, apoptosis was measured by flow cytometry after staining cells with Annexin-V (BD Pharmingen, San Diego, Calif., USA) and propidium iodide (Sigma). Cell number was counted under microscopy by staining cells with trypan blue.\nCCRF-CEM cells were treated with IRAK-1,-4 inhibitor for 24, 48, 72, and 96 hours.\nThe T-ALL cell line CCRF-CEM was cultured in the presence of 0, 1.2, 5, 10, and 20 μM IRAK-1,-4 inhibitor. (FIG. 23). To each concentration of IRAK-1,-4 inhibitor titrating doses of ABT-737 (1000→15 nM) vincristine, VS (10→0.1 nM), and paclitaxol, PAC (100→1.5 nM). […] Apoptosis was measure 48 hours later by staining cells with 7AAD and analyzed by flow cytometry.", "data": [{"compound": "CN(C)CC[C@H](CSc1ccccc1)Nc1ccc(S(=O)(=O)NC(=O)c2ccc(N3CCN(Cc4ccccc4-c4ccc(Cl)cc4)CC3)cc2)cc1[N+](=O)[O-]", "note": "[ABT-737]", "values": [{"measurement": "synergy with IRAK-1,-4 inhibitor", "result": "synergy"}]}, {"compound": "CC(=O)O[C@H]1C(=O)[C@@]2(C)[C@H]([C@H](OC(=O)c3ccccc3)[C@]3(O)C[C@H](OC(=O)[C@H](O)[C@@H](NC(=O)c4ccccc4)c4ccccc4)C(C)=C1C3(C)C)[C@]1(OC(C)=O)CO[C@@H]1C[C@@H]2O", "note": "[paclitaxel]", "values": [{"measurement": "synergy with IRAK-1,-4 inhibitor", "result": "synergy"}]}]}
